US9302999B2, “Substituted triazoles as herbicides” (E. I. DU PONT DE NEMOURS AND COMPANY, priority 2012, dated 2016)

Experiments:
[1] = tested on: Waterhemp; assay: Test C postemergence: waterhemp; assay type: in vivo, Amaranthus rudis
From the text: (§1) Seeds of plant species selected from blackgrass (Alopecurus myosuroides), bromegrass, downy (downy bromegrass, Bromus tectorum), foxtail, green (green foxtail, Setaria viridis), ryegrass, Italian (Italian ryegrass, Lolium multiflorum), winter wheat (Triticum aestivum), wild oat (Avena fatua), galium (catchweed bedstraw, Galium aparine), bermudagrass (Cynodon dactylon), surinam grass (Brachiaria decumbens), cocklebur (common cocklebur, Xanthium strumarium), corn (Zea mays), large crabgrass (Digitaria sanguinalis), woolly cupgrass (Eriochloa villosa), foxtail, giant (giant foxtail, Setaria faberii), goosegrass (Eleusine indica), johnsongrass (Sorghum halepense), kochia (Kochia scoparia), lambsquarters (Chenopodium album), morningglory (Ipomoea coccinea), nightshade (eastern black nightshade, Solanum ptycanthum), nutsedge, yellow (yellow nutsedge, Cyperus esculentus), pigweed (Amaranthus retroflexus), ragweed (common ragweed, Ambrosia elation), soybean (Glycine max), common (oilseed) sunflower (Helianthus annuus), Russian thistle (Salsola kali) and velvetleaf (Abutilon theophrasti) were planted into a blend of loam soil and sand and treated preemergence with test chemicals formulated in a non-phytotoxic solvent mixture which included a surfactant.
(§2) At the same time, plants selected from these crop and weed species and also barley (winter barley, Hordeum vulgare), canarygrass (Phalaris minor), chickweed (common chickweed, Stellaria media) windgrass (Apera spica-venti) and deadnettle (henbit deadnettle, Lamium amplexicaule) were planted in pots containing Redi-Earth® planting medium (Scotts Company, 14111 Scottslawn Road, Marysville, Ohio 43041) comprising spaghnum peat moss, vermiculite, wetting agent and starter nutrients and treated with postemergence applications of test chemicals formulated in the same manner. Plants ranged in height from 2 to 18 cm (1- to 4-leaf stage) for postemergence treatments.
(§3) Treated plants and controls were maintained in a greenhouse for 13 to 15 days, after which time all species were compared to controls and visually evaluated. Plant response ratings, summarized in Table C, are based on a scale of 0 to 100 where 0 is no effect and 100 is complete control. A dash (-) response means no test result.

[2] = tested on: Oilseed Rape; assay: Test C pre-/postemergence: oilseed rape; assay type: in vivo
From the text: as §1, §2, §3

[3] = tested on: Waterhemp; assay: Test C pre-/postemergence: waterhemp; assay type: in vivo; conditions: Postemergence, 31 g ai/ha; scale 0 to 100 (0 no effect, 100 complete control)
From the text: as §1, §2, §3

[4] = tested on: Barnyardgrass; assay: Test C postemergence: barnyardgrass; assay type: in vivo, Echinochloa crus-galli
From the text: as §2, §3

[5] = tested on: Oilseed Rape; assay: Test C postemergence: oilseed rape; assay type: in vivo; conditions: 62 g ai/ha, scale 0 to 100 (0 no effect, 100 complete control)
From the text: as §2, §3

[6] = tested on: Oilseed Rape; assay: Test C preemergence: oilseed rape; assay type: in vivo; conditions: 62 g ai/ha, scale of 0 to 100, 0 is no effect, 100 is complete control
From the text: as §1, §3

[7] = tested on: Oilseed Rape; assay: Test C postemergence: oilseed rape; assay type: in vivo, Brassica napus
From the text: as §1, §2, §3

[8] = tested on: barnyardgrass (Echinochloa crus-galli); assay: Test C pre-/postemergence: barnyardgrass; assay type: in vivo; conditions: Preemergence, 250 g ai/ha; scale 0 to 100, 0 no effect, 100 complete control
From the text: as §1, §2, §3

[9] = tested on: Barnyardgrass; assay: Test C preemergence: barnyardgrass; assay type: in vivo, Echinochloa crus-galli
From the text: as §1, §3

[10] = 125 g ai/ha, scale 0 to 100, 0 no effect, 100 complete control
[11] = 250 g ai/ha, scale 0 to 100 (0 no effect, 100 complete control)
[12] = Postemergence, 31 g ai/ha, scale 0 to 100 (0 no effect, 100 complete control)
[13] = Preemergence, 250 g ai/ha, scale 0 to 100, 0 no effect, 100 complete control
[14] = 31 g ai/ha, scale 0 to 100 (0 no effect, 100 complete control)
[15] = 62 g ai/ha, scale 0 to 100 (0 no effect, 100 complete control)
[16] = 31 g ai/ha, scale 0 (no effect) to 100 (complete control)
[17] = 62 g ai/ha, scale of 0 to 100, 0 is no effect, 100 is complete control

In the case of CCCc1nn(-c2ccc(C(F)(F)F)cc2)nc1Oc1ccnc(C(F)(F)F)c1 [Compound 170], the “Plant response rating, Waterhemp” value [1, 10] is reported as 98, the “Plant response rating, Waterhemp” value [1, 11] is reported as 100 and the “Plant response rating, Oilseed Rape” value [2, 12] is reported as 30. For the same molecule, the “Plant response rating, Oilseed Rape” value [2, 13] was 100, the “Plant response rating, Waterhemp” value [3] was 85 and the “Plant response rating, Barnyardgrass” value [4, 14] was 20. For the same molecule, the “Plant response rating, Barnyardgrass” value [4, 15] was 55, the “Plant response rating, Barnyardgrass” value ([4]; 250 g ai/ha, scale 0 to 100) was 95 and the “Plant response rating, Oilseed Rape” value [5] was 50. The “Plant response rating, Oilseed Rape” value [6] was 95, the “Plant response rating, Oilseed Rape” value [7, 10] was 50 and the “Plant response rating, Oilseed Rape” value [7, 11] was 85. The “Plant response rating, Barnyardgrass” value [8] was 100, the “Plant response rating, Barnyardgrass” value [9, 16] was 80 and the “Plant response rating, Barnyardgrass” value [9, 17] was 98. For the same molecule, the “Plant response rating, Barnyardgrass” value [9, 10] was 100.
CCc1nn(-c2ccc(F)c(F)c2)nc1Oc1ccnc(C(F)(F)F)c1 [Compound 171] was tested, and the “Plant response rating, Waterhemp” value [1, 10] was 75, the “Plant response rating, Waterhemp” value [1, 11] was 98 and the “Plant response rating, Oilseed Rape” value [2, 12] was 5. For the same molecule, the “Plant response rating, Oilseed Rape” value [2, 13] was 90, the “Plant response rating, Waterhemp” value [3] was 70 and the “Plant response rating, Barnyardgrass” value [4, 14] was 10. For the same molecule, the “Plant response rating, Barnyardgrass” value [4, 15] was 15, the “Plant response rating, Barnyardgrass” value ([4]; 250 g ai/ha, scale 0 to 100) was 75 and the “Plant response rating, Oilseed Rape” value [5] was 20. For the same molecule, the “Plant response rating, Oilseed Rape” value [6] was 50, the “Plant response rating, Oilseed Rape” value [7, 10] was 30 and the “Plant response rating, Oilseed Rape” value [7, 11] was 30. The “Plant response rating, Barnyardgrass” value [8] was 98, the “Plant response rating, Barnyardgrass” value [9, 16] was 5 and the “Plant response rating, Barnyardgrass” value [9, 17] was 75. For the same molecule, the “Plant response rating, Barnyardgrass” value [9, 10] was 95.
CCCc1nn(-c2ccc(F)c(F)c2)nc1Oc1ccnc(C(F)(F)F)c1 [Compound 172] was tested, and the “Plant response rating, Waterhemp” value [1, 10] was 98, the “Plant response rating, Waterhemp” value [1, 11] was 98 and the “Plant response rating, Oilseed Rape” value [2, 12] was 50. For the same molecule, the “Plant response rating, Oilseed Rape” value [2, 13] was 100, the “Plant response rating, Waterhemp” value [3] was 90 and the “Plant response rating, Barnyardgrass” value [4, 14] was 40. The “Plant response rating, Barnyardgrass” value [4, 15] was 45, the “Plant response rating, Barnyardgrass” value ([4]; 250 g ai/ha, scale 0 to 100) was 90 and the “Plant response rating, Oilseed Rape” value [5] was 90. For the same molecule, the “Plant response rating, Oilseed Rape” value [6] was 90, the “Plant response rating, Oilseed Rape” value [7, 10] was 90 and the “Plant response rating, Oilseed Rape” value [7, 11] was 95. For the same molecule, the “Plant response rating, Barnyardgrass” value [8] was 100, the “Plant response rating, Barnyardgrass” value [9, 16] was 85 and the “Plant response rating, Barnyardgrass” value [9, 17] was 98. The “Plant response rating, Barnyardgrass” value [9, 10] was 100.
CCCc1nn(-c2ccc(F)cc2F)nc1Oc1ccnc(C(F)(F)F)c1 [Compound 179] was tested, and the “Plant response rating, Waterhemp” value [1, 10] was 95, the “Plant response rating, Waterhemp” value [1, 11] was 95 and the “Plant response rating, Oilseed Rape” value [2, 12] was 30. For the same molecule, the “Plant response rating, Oilseed Rape” value [2, 13] was 100, the “Plant response rating, Waterhemp” value [3] was 80 and the “Plant response rating, Barnyardgrass” value [4, 14] was 40. For the same molecule, the “Plant response rating, Barnyardgrass” value [4, 15] was 45, the “Plant response rating, Barnyardgrass” value ([4]; 250 g ai/ha, scale 0 to 100) was 75 and the “Plant response rating, Oilseed Rape” value [5] was 40. For the same molecule, the “Plant response rating, Oilseed Rape” value [6] was 98, the “Plant response rating, Oilseed Rape” value [7, 10] was 90 and the “Plant response rating, Oilseed Rape” value [7, 11] was 90. For the same molecule, the “Plant response rating, Barnyardgrass” value [8] was 100, the “Plant response rating, Barnyardgrass” value [9, 16] was 40 and the “Plant response rating, Barnyardgrass” value [9, 17] was 100. The “Plant response rating, Barnyardgrass” value [9, 10] was 100.
In the case of CCc1nn(-c2ccc(C(F)(F)F)c(F)c2)nc1Oc1ccnc(C(F)(F)F)c1 [Compound 183], the “Plant response rating, Waterhemp” value [1, 10] is reported as 100, the “Plant response rating, Waterhemp” value [1, 11] is reported as 100 and the “Plant response rating, Oilseed Rape” value [2, 12] is reported as 20. For the same molecule, the “Plant response rating, Oilseed Rape” value [2, 13] was 100, the “Plant response rating, Waterhemp” value [3] was 85 and the “Plant response rating, Barnyardgrass” value [4, 14] was 15. For the same molecule, the “Plant response rating, Barnyardgrass” value [4, 15] was 35, the “Plant response rating, Barnyardgrass” value ([4]; 250 g ai/ha, scale 0 to 100) was 85 and the “Plant response rating, Oilseed Rape” value [5] was 25. The “Plant response rating, Oilseed Rape” value [6] was 80, the “Plant response rating, Oilseed Rape” value [7, 10] was 25 and the “Plant response rating, Oilseed Rape” value [7, 11] was 50. For the same molecule, the “Plant response rating, Barnyardgrass” value [8] was 100, the “Plant response rating, Barnyardgrass” value [9, 16] was 40 and the “Plant response rating, Barnyardgrass” value [9, 17] was 95. For the same molecule, the “Plant response rating, Barnyardgrass” value [9, 10] was 100.
